According to publication PMC5656322, “BAK1 is involved in AtRALF1-induced inhibition of root cell expansion” (PLoS Genetics, 2017):
Where no end group is shown, it is not given here.

Legend:
BAK1-GFP = assay: Co-immunoprecipitation with microsomal fraction of N. benthamiana leaves expressing BAK1-GFP; format: binding, Arabidopsis thaliana; conditions: 600 nM peptide, 1 h, 4 °C, anti-GFP antibody
Protocol: This assay was performed as previously described with some modifications. The BAK1 coding region was amplified from Arabidopsis genomic cDNA using standard PCR with the primers BAK1 Fw and BAK1 Rv (S1 Table). To generate the p35S-BAK1:GFP plasmid, the fragment was cloned into the pENTR D-TOPO vector and later transferred to the pk7FWG2 vector [56]. Leaves from N. benthamiana plants were agroinfiltrated with p19 vector alone and p19 co-expressed with p35S-BAK1:GFP, as previously described. After 3 days, leaves were homogenized in extraction buffer [300 mM sucrose, 100 mM Tris-HCl pH 7.5, 25 mM EDTA, 25 mM NaF, 1 mM Na2MoO4, 1 mM PMSF, 1 mM DTT and protease inhibitor cocktail (Roche), pH 6.2 adjusted] and centrifuged at 1,000 g for 10 min at 4°C, and the supernatant was then centrifuged at 100,000 g for 50 min at 4°C to precipitate the microsomal pellet. The pellet was resuspended in the extraction buffer plus 0.5% Triton-X and incubated with 600 nM recombinant AtRALF1 or 600 nM RALF1(I6A) for 1 h at 4°C. The complexes were incubated with anti-GFP antibody (Santa Cruz Biotechnology) and Sepharose Beads plus protein A (Life Technologies) overnight at 4°C. […] The AtRALF1/BAK1-GFP complex bound to the beads was eluted with denaturing in 10 μl of 1X loading buffer (NuPAGE LDS buffer) at 95°C for 8 min, then analyzed by SDS-PAGE. The proteins were detected as previously described.

[1] = tested on: BAK1 gene promoter / BAK1-GFP; assay: Quantification of GFP in roots of pBAK1:BAK1-GFP plants; format: in vivo, Arabidopsis thaliana; conditions: 1 μM, 4 h
Protocol: Transgenic Arabidopsis plants were grown for 4 days in liquid medium and treated with 1 μM AtRALF1 for 4 h. After 4 h of agitation at room temperature, the intensity of GFP in the roots was analyzed by confocal microscopy (Olympus FV1000). Control plants were kept in a peptide-free medium. The GFP excitation wavelength was 488 nm, and the emission wavelength was 540 nm. Images were generated by a scanner depth of 7 μm. Ten slices per root were generated and compacted in one image. Image processing was performed using the Olympus FluoView software. An average of 20 seedlings were observed under the microscope in at least 3 different experiments using independent biological replicates.

Substance: AtRALF1: root-specific RALF isoform in Arabidopsis; recombinant peptide hormone produced in E. coli (ATTKYISYQSLKRNSVPCSRRGASYYNCQNGAQANPYSRGCSKIARCRS; ends and bridges not checked; cysteine pairing not given here)
- co-immunoprecipitation with BAK1-GFP (BAK1-GFP): co-immunoprecipitated when the anti-GFP antibody was used
- BAK1-GFP fluorescent signal in roots [1]: quantitative increase in fluorescent signal in the roots
